Experimental data as given in patent US9107814B2, “Micelle composition of polymer and passenger drug” (Wisconsin Alumni Research Foundation, priority 2005, dated 2015).
Values after ≈ are worked out from the molar mass of the structure shown. Where two headings read alike, the source gives them in different places. Blank lines part the entries; values can stand above or below the compound they belong to.

Key:
[1] = geldanamycin prodrug loading into and release from PEG-b-PCL micelles; assay type: physicochemical; conditions: for Diff Coef: 0.5 mM PEG-b-PCL (5000:10000 Da) micelles, pH 7.4 phosphate buffer, 37° C., 10000MWCO dialysis; for w/w drug/carrier / Conc: 0.5 mM PEG-b-PCL micelles; for w/w drug/carrier: target 25% wt loading; for Conc: target […]; for time after which almost/substantially all the drug is released: prodrug loaded micelles; for fraction released: prodrug in micelles
Description: Drug diffusion was calculated as described in Forrest and Kwon, 2005 (Journal of Controlled Release).
PEG-PCL micelles are prepared by the drop-wise addition of geldanamycin prodrug and PEG-PCL dissolved in a miscible solvent, acetone, to vigorously stirred water, followed by removal of the solvent by N2 purge, and 0.2-μm filtration. Alternatively, the solution may be centrifuged to remove unincorporated and aggregated drug. The final solvent to water ratio is between about 0.1 and about 5, preferably between about 0.5 and about 4, and more preferably about 2. The micelle solution should be delivered at a rate of between about 2 s/drop and about 60 s/drop, preferably between about 5 s/drop and about 30 s/drop, and more preferably between about 10 s/drop and about 20 s/drop.

[2] = octanol-water partition coefficient by microemulsion electrokinetic chromatography (MEEKC); conditions: for log Po/w: pH 7.00 running buffer, ± standard deviation (n = 3)
Description: (§1) The octanol-water partition coefficient of geldanamycin was determined by microemulsion electrokinetic chromatography.
(§2) Running buffer was prepared by titration of 25-mM sodium phosphate monobasic with 50-mM sodium tetraborate to pH 7.00, and 1.44 g of sodium dodecyl sulfate, 6.49 g of 1-butanol, and 0.82 g of heptane were made up to 100 ml with phosphate-borate buffer. The running buffer was ultrasonicated for 30 min in a closed 250-ml flask in ice water (G112SP1 Special Ultrasonic Cleaner, Laboratory Supplies Company Inc., Hicksville, N.Y.). […] Compounds and standards (n=3) were dissolved in the running buffer (0.05 mg/ml) with 0.5 μL/ml of nitromethane and 0.5 μL/ml of 1-phenyldodecane by ultrasonication (10 min) in a closed tube and centrifuged (16000×g, 3 min) to degas. A BioFocus 3000 capillary electrophoresis system (Bio-Rad, Hercules, Calif.) equipped with a 50-μm ID×37-cm uncoated fused-silica column (Polymicron Technologies LLC, Phoenix, Ariz.) was used for MEEKC experiments. The column was prewashed with 1-M NaOH for 5 min and before runs with 0.1-M NaOH for 1 min, ddH2O for 1 min, and running buffer for 1 min at 100 psi (690 kPa). Running conditions were 10 kV (ca. 30-35 μA, 30 min/run) at 20° C. with 1-psi·s injections (6.9 kPa·s) and detection at 210 and 232 nm. Log Po/w and retention factors, k′, were calculated using the equations:
(§3) [formula] [formula] where tr, t0, and tme are retention times of the prodrug, nitromethane, and 1-phenyldodecane, respectively. Fitting parameters a and b were determined by linear regression of known standards: pyridine, phenol, benzoic acid, anisole, benzene, toluene, dodecanoic acid, benzopyrene, and pyrene (R^2=0.996, Excel® 2003, Microsoft Corp.).

[3] = system: MDA-MB-468 breast cancer cell line; assay: MTS cytotoxicity assay; assay type: cell-based; conditions: MDA-MB-468, 4 days, drugs in 1% DMSO
Description: Cytotoxicities of the drugs to the MDA-MB-468 breast cancer cell line (ATCC) were determined. Cells are plated at a density of 3000 cells/well into 96 well plates (100 μl/well DMEM medium). After 24 hours, drugs were added dissolved in 1% DMSO. Cells were incubated with drugs for 4 days and toxicity determined using the MTS cytotoxicity assay according to manufacturer's directions (Promega, Madison, Wis.).

[4] = preclinical trials; cited from earlier work
[5] = cited from earlier work
[6] = cited from earlier work; remark: listed apart in the source
[7] = loading of rapamycin and geldanamycin into PEG-DSPE and PEG-PCL micelles; assay type: physicochemical; conditions: micelle solution against water solubility
Excerpt: The final solvent to water ratio is between about 0.1 and about 5, preferably between about 0.5 and about 4, and more preferably about 2. The micelle solution should be delivered at a rate of between about 2 s/drop and about 60 s/drop, preferably between about 5 s/drop and about 30 s/drop, and more preferably between about 10 s/drop and about 20 s/drop.

[8] = paclitaxel prodrug loading and sizing of PEG-b-PCL micelles; assay type: physicochemical; conditions: for Solubilized / prodrug:caprolactone / prodrug w/w %: 20% w/w prodrug loading in 0.5-mM PEG-b-PCL micelles; for Diameter (intensity): DLS, PEG-PCL micelles prepared at 20% w/w drug; for Solubilized (in parentheses): after evaporation to 25% of original volume and refiltration (0.22-μm)
Description: The organic solvent was then removed by stirring under an air purge. Where stated, samples were further concentrated by prolonged evaporation under an air purge. After removing the organic solvent, PEG-b-PCL micelles were passed through a 0.22-μm polyestersulfone filter to remove insoluble material and unincorporated drug. In a typical experiment, […] of PEG-b-PCL was dissolved in 0.75 ml of dry acetone and added dropwise (50 μL/min) to 2 ml of ddH2O yielding 0.5-mM PEG-b-PCL micelles after removing the volatile organic solvent.
The incorporation of prodrugs into PEG-b-PCL micelles was verified by equivalent retention times in UV and RI chromatographs from gel permeation chromatography. PEG-b-PCL micelles were injected on an OHpak SB-806M GPC column (20-μL injections, 0.5-mM PEG-b-PCL, 0.75 ml/min of ddH2O, 10° C.) (Shodex, Kawasaki, Japan) and detected by refractive index (RI) and UV absorbance (232 nm). Prodrug loading into PEG-b-PCL micelles was quantitatively determined by reverse-phase HPLC (Alltech Econosphere 3-μm 4.6×50 mm) using a 0.01% (v/v) trifluoroacetic acid—ACN gradient (40-100% ACN, 50° C., 232-nm detection). Hydrodynamic diameters of PEG-b-PCL micelles were determined by dynamic light scattering (DLS) (NICOMP 380 ZLS, Particle Sizing Systems, Santa Barbara, Calif.). Data were analyzed by intensity-weighted Gaussian distribution fitting (NICOMP version 1.76). Measurements were made for a minimum of 10 min or at least 100×10^5 counts in channel 1.

[9] = cited from earlier work; remark: listed apart in the source

Description for physchem: as §1, §2, §3

SMILES: CCCCCCCCCCCCCCCCNC1=C2CC(C)CC(OC)C(O)C(C)C=C(C)C(OC(N)=O)C(OC)C=CC=C(C)C(=O)NC(=CC1=O)C2=O (stereo not shown) [17-amino-hexyldecyl-17-demethoxygeldanamycin]
Diff Coef [1]: 1.69 × 10^−20 cm2/s
w/w drug/carrier [1]: 20 ± 2%
Conc [1]: 1500 µg/mL
time after which almost/substantially all the drug is released [1]: about 12 days
fraction released ([1]; time 0 days): 0
fraction released ([1]; time 0.83 days): 0
fraction released ([1]; time 2 days): 0.1398
fraction released ([1]; time 4 days): 0.3551
fraction released ([1]; time 6 days): 0.3985
fraction released ([1]; time 8 days): 0.6364
fraction released ([1]; time 10 days): 0.7517
fraction released ([1]; time 12 days): 0.8238
Log Po/w [2]: 4.30

Diff Coef [1]: 2.55 × 10^−20 cm2/s
w/w drug/carrier [1]: 21 ± 2%
Conc [1]: 1600 µg/mL
time after which almost/substantially all the drug is released [1]: about 8 days
fraction released ([1]; time 0 days): 0
fraction released ([1]; time 0.83 days): 0.1688
fraction released ([1]; time 2 days): 0.2909
fraction released ([1]; time 4 days): 0.3431
fraction released ([1]; time 6 days): 0.8531
fraction released ([1]; time 8 days): 0.9878
Log Po/w [2]: 4.16
SMILES: CCCCCCCCCCCC(=O)OCCNC1=C2CC(C)CC(OC)C(O)C(C)C=C(C)C(OC(N)=O)C(OC)C=CC=C(C)C(=O)NC(=CC1=O)C2=O (stereo not shown) [17-aminoethyl-dodeconate-17-demethoxygeldanamycin]

SMILES: CCCCCC(=O)OCCNC1=C2CC(C)CC(OC)C(O)C(C)C=C(C)C(OC(N)=O)C(OC)C=CC=C(C)C(=O)NC(=CC1=O)C2=O (stereo not shown) [17-aminoethyl-hexonate-17-demethoxygeldanamycin]
IC50 [3]: 240 nM

Diff Coef [1]: 3.61 × 10^−20 cm2/s
w/w drug/carrier [1]: 22 ± 5%
Conc [1]: 1700 µg/mL
time after which almost/substantially all the drug is released [1]: about 8 days
fraction released ([1]; time 0 days): 0
fraction released ([1]; time 0.83 days): 0.1695
fraction released ([1]; time 2 days): 0.2916
fraction released ([1]; time 4 days): 0.6116
fraction released ([1]; time 8 days): 0.9528
SMILES: CCCCCCCCCCCCCCCC(=O)OCCNC1=C2CC(C)CC(OC)C(O)C(C)C=C(C)C(OC(N)=O)C(OC)C=CC=C(C)C(=O)NC(=CC1=O)C2=O (stereo not shown) [17-aminoethyl-palmitate-17-demethoxygeldanamycin]
IC50 [3]: 350 nM

SMILES: COC1C=CC=C(C)C(=O)NC2=CC(=O)C(NCCO)=C(CC(C)CC(OC)C(O)C(C)C=C(C)C1OC(N)=O)C2=O (stereo not shown) [17-hydroxyethylamino-17-demethoxygeldanamycin, reference compound]
IC50 [3]: 73 nM

SMILES: COC1=C2C[C@@H](C)C[C@H](OC)[C@H](O)[C@@H](C)/C=C(\C)[C@H](OC(N)=O)[C@@H](OC)/C=C\C=C(/C)C(=O)NC(=CC1=O)C2=O [Geldanamycin]
dose limiting severe hepatotoxicity [4]: 4 mg/kg
MTD dog [5]: < 100 mg/m^2
water solubility [6]: ~1.5 µg/mL (≈ 2.68 µM)
IC50 ([3]; Homo sapiens, 96 h): 5 nM
increase in solubility [7]: 300 fold
chromatographic logP (physchem): ~2.77

chromatographic logP (physchem; pH 7): 4.4 ± 0.06
Solubilized [8]: <0.2 mg/mL
prodrug:caprolactone [8]: <1 mmol:mol
SMILES: CC(=O)O[C@H]1C(=O)[C@@]2(C)[C@H]([C@H](OC(=O)c3ccccc3)[C@]3(O)C[C@H](OC(=O)[C@H](O)[C@@H](NC(=O)c4ccccc4)c4ccccc4)C(C)=C1C3(C)C)[C@]1(OC(C)=O)CO[C@@H]1C[C@@H]2O [Paclitaxel, reference compound]

SMILES: CCCCCC(=O)O[C@H]1C[C@H]2OC[C@@]2(OC(C)=O)[C@H]2[C@H](OC(=O)c3ccccc3)[C@]3(O)C[C@H](OC(=O)[C@H](O)[C@@H](NC(=O)c4ccccc4)c4ccccc4)C(C)=C([C@@H](OC(C)=O)C(=O)[C@]12C)C3(C)C [Prodrug 4a]
Solubilized [8]: 1.55 ± 0.04 mg/mL
prodrug w/w % [8]: 17.1%
prodrug:caprolactone [8]: 36.5 mmol:mol
Diameter (intensity) [8]: 34 ± 4 nm
Solubilized (in parentheses) [8]: 5.1 ± 0.5 mg/mL
log Po/w [2]: 4.43 ± 0.06

Solubilized [8]: 1.47 ± 0.03 mg/mL
prodrug w/w % [8]: 16.4%
prodrug:caprolactone [8]: 31.8 mmol:mol
Diameter (intensity) [8]: 27 ± 5 nm
Solubilized (in parentheses) [8]: 2.2 ± 0.5 mg/mL
log Po/w [2]: 4.59 ± 0.18
SMILES: CCCCCCCCCCCC(=O)O[C@H]1C[C@H]2OC[C@@]2(OC(C)=O)[C@H]2[C@H](OC(=O)c3ccccc3)[C@]3(O)C[C@H](OC(=O)[C@H](O)[C@@H](NC(=O)c4ccccc4)c4ccccc4)C(C)=C([C@@H](OC(C)=O)C(=O)[C@]12C)C3(C)C [Prodrug 4b]

Solubilized [8]: 1.62 ± 0.03 mg/mL
prodrug w/w % [8]: 21.6%
prodrug:caprolactone [8]: 33.3 mmol:mol
Diameter (intensity) [8]: 44 ± 2 nm
Solubilized (in parentheses) [8]: 3.0 ± 0.9 mg/mL
log Po/w [2]: 4.48 ± 0.06
SMILES: CCCCCCCCCCCCCCCC(=O)O[C@H]1C[C@H]2OC[C@@]2(OC(C)=O)[C@H]2[C@H](OC(=O)c3ccccc3)[C@]3(O)C[C@H](OC(=O)[C@H](O)[C@@H](NC(=O)c4ccccc4)c4ccccc4)C(C)=C([C@@H](OC(C)=O)C(=O)[C@]12C)C3(C)C [Prodrug 4c, 7-palmitate-paclitaxel]

Solubilized [8]: 1.42 ± 0.11 mg/mL
prodrug w/w % [8]: 17.8%
prodrug:caprolactone [8]: 33.4 mmol:mol
Diameter (intensity) [8]: 32 ± 0 nm
Solubilized (in parentheses) [8]: > 3 mg/mL
log Po/w [2]: 4.45 ± 0.03
SMILES: CCCCCC(=O)O[C@@H](C(=O)O[C@H]1C[C@@]2(O)[C@@H](OC(=O)c3ccccc3)[C@@H]3[C@]4(OC(C)=O)CO[C@@H]4C[C@H](O)[C@@]3(C)C(=O)[C@H](OC(C)=O)C(=C1C)C2(C)C)[C@@H](NC(=O)c1ccccc1)c1ccccc1 [Prodrug 5a]

Solubilized [8]: 1.57 ± 0.02 mg/mL
prodrug w/w % [8]: 17.3%
prodrug:caprolactone [8]: 34.0 mmol:mol
Diameter (intensity) [8]: 28 ± 0 nm
Solubilized (in parentheses) [8]: > 3 mg/mL
log Po/w [2]: 4.49 ± 0.03
SMILES: CCCCCCCCCCCC(=O)OC(C(=O)OC1CC2(O)C(OC(=O)c3ccccc3)C3C4(OC(C)=O)COC4CC(O)C3(C)C(=O)C(OC(C)=O)C(=C1C)C2(C)C)C(NC(=O)c1ccccc1)c1ccccc1 (stereo not shown) [Prodrug 5b]

SMILES: CCCCCCCCCCCCCCCC(=O)O[C@@H](C(=O)O[C@H]1C[C@@]2(O)[C@@H](OC(=O)c3ccccc3)[C@@H]3[C@]4(OC(C)=O)CO[C@@H]4C[C@H](O)[C@@]3(C)C(=O)[C@H](OC(C)=O)C(=C1C)C2(C)C)[C@@H](NC(=O)c1ccccc1)c1ccccc1 [Prodrug 5c, 2-palmitate-paclitaxel]
Solubilized [8]: 1.85 ± 0.05 mg/mL
prodrug w/w % [8]: 19.8%
prodrug:caprolactone [8]: 40.0 mmol:mol
Diameter (intensity) [8]: 37 ± 6 nm
Solubilized (in parentheses) [8]: > 3 mg/mL
log Po/w [2]: 4.51 ± 0.04

SMILES: C=CCNC1=C2C[C@@H](C)C[C@H](OC)[C@H](O)[C@@H](C)/C=C(\C)[C@H](OC(N)=O)[C@@H](OC)/C=C\C=C(/C)C(=O)NC(=CC1=O)C2=O [Prodrug 17-AAG]
MTD dog ([5]; in vivo): 500 mg/m^2
dose limiting toxicity ([9]; Phase I): GI toxicity to be dose limiting
suggested Phase II dosing ([9]; from Phase I results): 40 mg/m^2

SMILES: CO[C@H]1/C=C\C=C(/C)C(=O)NC2=CC(=O)C(NCCN(C)C)=C(C[C@@H](C)C[C@H](OC)[C@H](O)[C@@H](C)/C=C(\C)[C@@H]1OC(N)=O)C2=O [Prodrug 17DMAG]
MTD dog [5]: 8 mg/m^2
